Converted amounts (≈) assume the structure as drawn. Read-outs that look alike come from different tables or passages of the source.
Key:
[1] = Partition coefficient (Pa) between 1-octanol and 10 mM potassium phosphate buffer; format: physicochemical; details: 1-octanol / 10 mM potassium phosphate buffer, pH 7.5, 50 μM; for logD at 50 µM: room temperature
Protocol: Partition of the test compounds between 1-octanol (Merck, Darmstadt, Germany) and 10 mM potassium phosphate buffer, pH, 7.5 (Merck), was measured as described in Balzarini et al., Biochem, Biophys. Res. Commun. 158: 413-422 (1989). Briefly, a 50 μM concentration of the test compound in potassium phosphate buffer was thoroughly mixed with an equal volume of 1-octanol for 30 min at room temperature. Then, the mixture was further equilibrated at room temperature and UV absorption was measured for the aqueous and alcoholic liquid phases. The partition coefficient (Pa) was calculated as the ratio of the compound concentration present in the 1-octanol phase to the compound concentration present in the aqueous phase.

MT-4 cell DNA synthesis = assay: Incorporation of radiolabeled precursors into MT-4 cell DNA; format: cell-based; details: Homo sapiens, MT4, MT-4 cells, 20 to 24 hr
Text: (§1) The radiolabeled nucleosides [methyl-^3 H]dThd (specific radioactivity: 40 Ci/mmol), [5-^3 H]dUrd (specific radioactivity: 27 Ci/mmol), [5-^3 H]dCyc (specific radioactivity: 18.2 Ci/mmol) and the radiolabeled amino acid L-[4,5-^3 H]leucine (specific radioactivity: 52 Ci/mmol were derived from the Radiochemcial Centre (Amersham, England); [5-^3 H]Urd (specific radioactivity: 21 Ci/mmol) and [5-^3 H]Cyd (specific radioactivity: 21 Ci/mmol) and were obtained from Moravek Biochemicals Inc. (Brea, Calif.)
(§2) The incorporation of [methyl-^3 H]dThd, [5-^3 H]dUrd, [5-^3 H]dCyd, [5-^3 H]Urd, [5-^3 H]Cyd and L-[4,5-^3 H]1eu into TCA-insoluble MT-4 cell material was measured in wells of a 96-well microtiter plate (Falcon-3072, Becton-Dickinson, New Jersey). To each well were added 10^5 MT-4 cells, 0.25 μCi of the radiolabeled precursor and a given amount of test compound. The cells were allowed to proliferate for 20 to 24 hr at 37° C. in a humidified, CO2 -controlled atmosphere. At the end of this incubation period, the contents of the wells (200 μl) were brought onto 25-mm glass fiber filters (type A/E, Gelman Instrument Company, Ann Arbor, Mich.), and mounted on a Millipore 3025 sampling manifold apparatus. The filters were washed twice with 2 ml and 5 ml cold NaCl/Pi (phosphte-buffered saline), twice with 2 and 5 ml cold 10% trichloroacetic acid (TCA), twice with 5 and 7.5 ml cold 5% TCA, and twice with 1 ml cold ethanol.

[2] = tested on: MT-4 cell protein synthesis; assay: Incorporation of radiolabeled leucine into MT-4 cell protein; format: cell-based; details: Homo sapiens, MT4; MT-4 cells, 20 to 24 hr; read-out: IC50, L-[4,5-3H]leucine incorporation
Text: as §1, §2

HIV-1 (HTLV-IIIB) = assay: Anti-retrovirus activity: inhibition of HIV-1-induced cytopathogenicity in MT-4 cells; format: cell-based; details: for EC50: Human immunodeficiency virus 1, IIIB; for S.I. (Selectivity Index): Table 1, CC50/EC50, MT-4 cells
Text: The viruses used were moloney murine sarcoma virus (MSV), HIV-1 (strain HTLV-IIIB, kindly provided by R. C. Gallo and M. Popovic, National Cancer Institute, Bethesda, Md.), HIV-2 (strain LAV-2(ROD)), kindly provided by L. Montagnier (Pasteur Institute, Paris, France), simian immunodeficiency virus (SIV) (strain SIVMAC251, kindly provided by C. Bruck, RIT-Smith-Kline, Rixensart, Belgium).
(§3) In order to evaluate the inhibitory effects against retrovirus-induced cytopathogenicity in MT-4cells, said cells (5×10^5 cells/ml) were suspended in fresh culture medium and infected with HIV-1, HIV-2 or SIOV at 100 times the cell culture infective dose-50 (CCID50) per ml cell suspension (1 CCID50 being the dose infective for 50% of the cell cultures). Then, 100 μl of the infected cell suspension were transferred to microplate wells, mixed with 100 μl of the appropriate dilutions of the test compounds, and further incubated at 37° C. After 5 days, the number of viable cells was determined in a blood cell-counting chamber by trypan blue staining for both virus-infected and mock-infected cell cultures.

[3] = Cytotoxicity for mock-infected MT-4 cells; details: human, mt-4 cells
Protocol: as §3

MT-4 cells = assay: Cytotoxicity for mock-infected MT-4 cells; details: for cytotoxicity to MT-4 cells (in words): at 100 μg/ml
Protocol: as §3

[4] = tested on: MT-4 cell DNA, RNA or protein synthesis; assay: Incorporation of radiolabeled DNA, RNA or protein precursors into TCA-insoluble MT-4 cell material (summary in words); format: cell-based; details: for inhibition of incorporation of dThd, dUrd, dCyd, Urd, Cyd or leucine: at 100 μg/ml
Text: as §1, §2

HIV-1 mutant strains = assay: Resistance of HIV-1 strains selected against compounds 5, 6 and 7; format: cell-based
MT-4 cell RNA synthesis = assay: Incorporation of radiolabeled precursors into MT-4 cell RNA; format: cell-based; details: Homo sapiens, MT4, MT-4 cells, 20 to 24 hr
Text: as §1, §2

HIV-1 = assay: Antiviral activity upon delayed addition to HIV-1-infected MT-4 cells; format: cell-based
Protocol: as §3
Mt-4 cells were suspended in culture medium, infected with HIV-1 and brought into microplate wells as described above. […] After 5 days, the number of viable cells was determined and the EC50 and CC50 values for the test compounds were defined as described in example 1.

HIV-2 strain (EHO) = assay: Activity against HIV-2 strain EHO; format: cell-based
[5] = read-out: IC50, [5-3H]dCyd incorporation
[6] = read-out: IC50, [5-3H]dUrd incorporation
[7] = read-out: IC50, [methyl-3H]dThd incorporation
[8] = MT4, read-out: 50% effective concentration (EC50)
[9] = read-out: IC50, [5-3H]Cyd incorporation
[10] = read-out: IC50, [5-3H]Urd incorporation

Structure (SMILES) | presence in the n-octanol phase compared to the aqueous phase [1] | logD at 50 µM [1] | IC50 (MT-4 cell DNA synthesis; [5]) | IC50 (MT-4 cell DNA synthesis; [6]) | IC50 (MT-4 cell DNA synthesis; [7]) | IC50 [2] | Selectivity Index (HIV-1 (HTLV-IIIB)) | EC50 (HIV-1 (HTLV-IIIB); MT4, 120 h) | EC50 (HIV-1 (HTLV-IIIB); [8]) | S.I. (Selectivity Index) (HIV-1 (HTLV-IIIB)) | CC50 at 120 h [3] | cytotoxicity to MT-4 cells (in words) (MT-4 cells) | inhibition of incorporation of dThd, dUrd, dCyd, Urd, Cyd or leucine [4] | amino acid change in reverse transcriptase of HIV-1 strains selected for resistance (HIV-1 mutant strains) | IC50 (MT-4 cell RNA synthesis; [9]) | IC50 (MT-4 cell RNA synthesis; [10]) | activity against HIV-2 strain (EHO) (HIV-2 strain (EHO)) | further results
Cc1cn([C@@H]2O[C@H](CO[Si](C)(C)C(C)(C)C)[C@@]3(OS(=O)(=O)C=C3N)[C@H]2O[Si](C)(C)C(C)(C)C)c(=O)n(C)c1=O [Compound 6] | more than 95% | > 1.3 | > 100 µg/mL | > 100 µg/mL | > 100 µg/mL | > 100 µg/mL | 4088 | 0.034 µg/mL (≈ 0.0563 µM) | 0.034 µg/mL (≈ 0.0563 µM) | 4088 | 139 µg/mL (≈ 230 µM) | not cytotoxic | did not markedly inhibit | glutamic acid change at position 138 to lysine | > 100 µg/mL | > 100 µg/mL | – | decrease of antiviral activity on delayed addition (HIV-1; addition delayed by 17-24 hours, data not shown): 10 fold; antiviral activity on delayed addition (HIV-1; addition delayed by 41 to 48 hours): almost totally lost
CCn1c(=O)c(C)cn([C@@H]2O[C@H](CO[Si](C)(C)C(C)(C)C)[C@@]3(OS(=O)(=O)C=C3N)[C@H]2O[Si](C)(C)C(C)(C)C)c1=O [Compound 7, {1-[2', 5'-Bis-O-(tert-butyldimethylsily)-62 -D-ribofuranosyl]-3-N-ethyl-thymine}-3'-spiro-5"-{4"-amino-1", 2"-oxathiole-2",2"-dioxide}] | more than 95% | > 1.3 | – | – | – | – | 1000 | 0.073 µg/mL (≈ 0.118 µM) | 0.073 µg/mL (≈ 0.118 µM) | 1000 | 73 µg/mL (≈ 118 µM) | – | – | glutamic acid change at position 138 to lysine | – | – | – | –
CC(C)=CCn1c(=O)c(C)cn([C@@H]2O[C@H](CO[Si](C)(C)C(C)(C)C)[C@@]3(OS(=O)(=O)C=C3N)[C@H]2O[Si](C)(C)C(C)(C)C)c1=O [Compound 9, {1-[2', 5'-Bis-O-(tert-butyldimethylsilyl)-β-D-ribofuranosyl]-3-N-(3-methyl-2-butenyl)-thymine}-3'spiro-5"-{4"-amino-1", 2"-oxathiole-2", 2"-dioxide}] | – | – | > 100 µg/mL | > 100 µg/mL | > 100 µg/mL | > 100 µg/mL | – | 0.239 µg/mL (≈ 0.363 µM) | – | 252 | 73 µg/mL (≈ 111 µM) | not cytotoxic | did not markedly inhibit | – | > 100 µg/mL | > 100 µg/mL | inactive | –
CC(C)(C)[Si](C)(C)OC[C@H]1O[C@@H](n2ccc(N)nc2=O)[C@H](O[Si](C)(C)C(C)(C)C)[C@]12OS(=O)(=O)C=C2N [Compound 14, {1-[2', 5'-Bis-O-(tert-butyldimethylsilyl)-β-D-ribofuranosyl]-cytosine}-3'-spiro-5"-{4"-amino-1",2"-oxathiole-2",2"-dioxide}] | more than 95% | > 1.3 | > 100 µg/mL | > 100 µg/mL | > 100 µg/mL | > 100 µg/mL | – | 0.439 µg/mL (≈ 0.764 µM) | – | ≥ 456 | ≥ 200 µg/mL | not cytotoxic | did not markedly inhibit | – | > 100 µg/mL | > 100 µg/mL | inactive | –
Cc1cn([C@@H]2O[C@H](CO[Si](C)(C)C(C)(C)C)[C@@]3(OS(=O)(=O)C=C3N)[C@H]2O[Si](C)(C)C(C)(C)C)c(=O)nc1N [Compound 16, {1-[2', 5'-Bis-O-(tert-butyldimethylsilyl)-β-D-ribofuranosyl]-5-methyl-cytosine}-3'-spiro-5"-{4"-amino-1",2"-oxathiole-2",2"-dioxide}] | – | – | 14 µg/mL (≈ 23.8 µM) | 9.9 µg/mL (≈ 16.8 µM) | 14 µg/mL (≈ 23.8 µM) | 13 µg/mL (≈ 22.1 µM) | – | 0.072 µg/mL (≈ 0.122 µM) | – | 246 | 17.7 µg/mL (≈ 30.1 µM) | not cytotoxic | did not markedly inhibit | – | 11 µg/mL (≈ 18.7 µM) | 8.9 µg/mL (≈ 15.1 µM) | inactive | inhibition of MT-4 cell proliferation (in words) (MT-4 cells): inhibitory to MT-4 cell proliferation; inhibition of incorporation of precursors relative to inhibition of MT-4 cell proliferation ([4]; Table 2 discussion): equally inhibitory; preferential inhibition of incorporation of one precursor over the others ([4]; Table 2 discussion): neither

From US5527900A, “N3-alkyl-2',5'-0-silylated-3'-spiro-thymidine derivatives” (Stitching Rega VZW, priority 1991, dated 1996)
